Results published in ChEMBL document CHEMBL1201862, “PubChem BioAssay data set” (2004).
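96-well plates; 48 h exposure; 5 concentrations. Endpoints by linear interpolation between flanking doses. Not reached: highest tested concentration assigned. The concentration for 50% growth inhibition is given as GI50.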 Activity calls are given as the source filed them. Rule as the data show it: active = GI50 up to about 1.1 µM and inactive = higher.

Columns and labels:
Experiment in all cases: inhibition of tumour cell growth, NCI panel, 48 h
T47D = tested on: T47D
MDA-MB-231 = tested on: MDA-MB-231
Malme-3M = tested on: Malme-3M
OVCAR-8 = tested on: OVCAR-8
OVCAR-5 = tested on: OVCAR-5
HCT-15 = tested on: HCT-15
UACC-257 = tested on: UACC-257
COLO 205 = tested on: COLO 205
BT-549 = tested on: BT-549
NCI-H460 = tested on: NCI-H460
SF-295 = tested on: SF-295
DU-145 = tested on: DU-145
NCI/ADR-RES = tested on: NCI/ADR-RES
SW-620 = tested on: SW-620
IGROV-1 = tested on: IGROV-1
NCI-H23 = tested on: NCI-H23
MOLT-4 = tested on: MOLT-4
SF-539 = tested on: SF-539
HCC 2998 = tested on: HCC 2998
NCI-H226 = tested on: NCI-H226

Compound	GI50 (T47D)	GI50 (MDA-MB-231)	GI50 (Malme-3M)	GI50 (OVCAR-8)	GI50 (OVCAR-5)	GI50 (HCT-15) [µM]	GI50 (UACC-257)	GI50 (COLO 205)	GI50 (BT-549)	GI50 (NCI-H460)	GI50 (SF-295)	GI50 (DU-145)	GI50 (NCI/ADR-RES)	GI50 (SW-620)	GI50 (IGROV-1)	GI50 (NCI-H23)	GI50 (MOLT-4)	GI50 (SF-539)	GI50 (HCC 2998)	GI50 (NCI-H226)
CN(C)S(=O)(=O)c1ccc(Nc2ccc(O)c3c2C(=O)c2c([N+](=O)[O-])ccc(O)c2C3=O)cc1	> 100 µM (inactive)	91.2 µM (inactive)	57.4 µM (inactive)	> 100 µM (inactive)	> 100 µM (inactive)	> 100	> 100 µM (inactive)	65.8 µM (inactive)	> 100 µM (inactive)	> 100 µM (inactive)	> 100 µM (inactive)	> 100 µM (inactive)	> 100 µM (inactive)	92.3 µM (inactive)	> 100 µM (inactive)	> 100 µM (inactive)	35.5 µM (inactive)	–	–	–
COc1cc2c(c(O)c1OC)C(=O)[C@@H]1CCC(=O)N1C2c1ccccc1 (some centres undefined)	> 100 µM (inactive)	–	> 100 µM (inactive)	57.5 µM (inactive)	> 100 µM (inactive)	> 100	> 100 µM (inactive)	> 100 µM (inactive)	> 100 µM (inactive)	> 100 µM (inactive)	> 100 µM (inactive)	> 100 µM (inactive)	> 100 µM (inactive)	> 100 µM (inactive)	> 100 µM (inactive)	> 100 µM (inactive)	36 µM (inactive)	> 100 µM (inactive)	> 100 µM (inactive)	> 100 µM (inactive)
N[C@@H](CCC(=O)NC(Cc1ccccc1)C(=O)NCP(=O)(O)O)C(=O)O (some centres undefined)	> 100 µM (inactive)	> 100 µM (inactive)	> 100 µM (inactive)	> 100 µM (inactive)	> 100 µM (inactive)	> 100	> 100 µM (inactive)	> 100 µM (inactive)	61.8 µM (inactive)	> 100 µM (inactive)	0.513 µM (active)	–	> 100 µM (inactive)	> 100 µM (inactive)	> 100 µM (inactive)	> 100 µM (inactive)	> 100 µM (inactive)	> 100 µM (inactive)	> 100 µM (inactive)	–
CN1CC[C@]2(c3cccc(O)c3)CC(=O)/C(=C/c3ccccc3)[C@@H]1C2.[O-][Cl+3]([O-])([O-])O	–	2.34 µM (inactive)	2.64 µM (inactive)	3.03 µM (inactive)	14.4 µM (inactive)	1.66	3.24 µM (inactive)	6.97 µM (inactive)	2.44 µM (inactive)	2.17 µM (inactive)	3.24 µM (inactive)	5.52 µM (inactive)	2.98 µM (inactive)	2.23 µM (inactive)	4.39 µM (inactive)	4.97 µM (inactive)	2.04 µM (inactive)	1.95 µM (inactive)	2.59 µM (inactive)	15 µM (inactive)
O=S1(=O)c2ccccc2N2CCCc3cc(Cl)cc1c32	–	37 µM (inactive)	70.6 µM (inactive)	> 100 µM (inactive)	> 100 µM (inactive)	> 100	> 100 µM (inactive)	> 100 µM (inactive)	> 100 µM (inactive)	> 100 µM (inactive)	29.3 µM (inactive)	> 100 µM (inactive)	> 100 µM (inactive)	> 100 µM (inactive)	> 100 µM (inactive)	–	> 100 µM (inactive)	35 µM (inactive)	> 100 µM (inactive)	> 100 µM (inactive)
CC(=O)Oc1c(N2CCCCC2)c(C(=O)c2ccccc2)c(O)c2ccn(N(C)C)c12	–	14 µM (inactive)	17.3 µM (inactive)	20.7 µM (inactive)	25.5 µM (inactive)	18	16.8 µM (inactive)	16.7 µM (inactive)	20.6 µM (inactive)	21.2 µM (inactive)	15 µM (inactive)	21.8 µM (inactive)	15.7 µM (inactive)	17.3 µM (inactive)	–	18.9 µM (inactive)	0.736 µM (active)	18.5 µM (inactive)	18.5 µM (inactive)	14.2 µM (inactive)
CNC(=S)N/N=C(C)\C(=N/NC(=S)NC)c1ccccc1	–	> 100 µM (inactive)	76.7 µM (inactive)	–	> 100 µM (inactive)	53.1	> 100 µM (inactive)	55.5 µM (inactive)	> 100 µM (inactive)	25.7 µM (inactive)	34.4 µM (inactive)	> 100 µM (inactive)	39.3 µM (inactive)	–	27.8 µM (inactive)	> 100 µM (inactive)	–	> 100 µM (inactive)	> 100 µM (inactive)	63.7 µM (inactive)
C[C@]12CCC(O)CC1=CC[C@@H]1[C@@H]2CC[C@]2(C)C(=O)[C@H](n3ccnc3)C[C@@H]12 (some centres undefined)	–	> 100 µM (inactive)	> 100 µM (inactive)	37.4 µM (inactive)	> 100 µM (inactive)	> 100	40.4 µM (inactive)	28.7 µM (inactive)	–	40.9 µM (inactive)	94.8 µM (inactive)	> 100 µM (inactive)	39.8 µM (inactive)	> 100 µM (inactive)	> 100 µM (inactive)	33.8 µM (inactive)	17.9 µM (inactive)	58.6 µM (inactive)	–	> 100 µM (inactive)
COC(=O)/C(=N\NC(N)=O)C(C(=O)C(=O)Nc1ccccc1OC)c1nc2ccc([N+](=O)[O-])cc2nc1O (centres undefined)	> 100 µM (inactive)	> 100 µM (inactive)	> 100 µM (inactive)	> 100 µM (inactive)	> 100 µM (inactive)	> 100	> 100 µM (inactive)	–	> 100 µM (inactive)	> 100 µM (inactive)	> 100 µM (inactive)	–	> 100 µM (inactive)	> 100 µM (inactive)	53.1 µM (inactive)	> 100 µM (inactive)	> 10 µM (inactive)	> 100 µM (inactive)	> 100 µM (inactive)	> 100 µM (inactive)
CCOC(=O)/C(=C\NC(=S)Nc1ccc(Cl)c(Cl)c1)C(=O)c1ccccc1	7.82 µM (inactive)	25.9 µM (inactive)	63.5 µM (inactive)	47.6 µM (inactive)	36.2 µM (inactive)	29.1	34 µM (inactive)	46 µM (inactive)	–	42.1 µM (inactive)	33.6 µM (inactive)	> 100 µM (inactive)	33 µM (inactive)	39.2 µM (inactive)	33 µM (inactive)	8.61 µM (inactive)	19 µM (inactive)	3.12 µM (inactive)	17.3 µM (inactive)	13.9 µM (inactive)
N#Cc1nc(C(F)(F)F)oc1N	> 100 µM (inactive)	> 100 µM (inactive)	> 100 µM (inactive)	> 100 µM (inactive)	> 100 µM (inactive)	> 100	> 100 µM (inactive)	> 100 µM (inactive)	–	> 100 µM (inactive)	> 100 µM (inactive)	> 100 µM (inactive)	> 100 µM (inactive)	> 100 µM (inactive)	> 100 µM (inactive)	> 100 µM (inactive)	> 100 µM (inactive)	> 100 µM (inactive)	> 100 µM (inactive)	> 100 µM (inactive)
CN1CSC(=S)N(c2cccc(C(F)(F)F)c2)C1	31.7 µM (inactive)	–	18.7 µM (inactive)	25.4 µM (inactive)	18.6 µM (inactive)	18.7	22.5 µM (inactive)	19 µM (inactive)	20.7 µM (inactive)	20.2 µM (inactive)	21.8 µM (inactive)	41.9 µM (inactive)	26.9 µM (inactive)	31.6 µM (inactive)	18.7 µM (inactive)	17.9 µM (inactive)	24.7 µM (inactive)	20.7 µM (inactive)	18.6 µM (inactive)	24.3 µM (inactive)
CCOC(=O)c1cc(-c2cc(OC)c(OC)c([N+](=O)[O-])c2)c([N+](=O)[O-])n1C	–	–	8.02 µM (inactive)	> 10 µM (inactive)	> 10 µM (inactive)	4.58	3.02 µM (inactive)	–	> 10 µM (inactive)	3.9 µM (inactive)	3.42 µM (inactive)	–	3.94 µM (inactive)	–	5.9 µM (inactive)	6.37 µM (inactive)	3.5 µM (inactive)	8.32 µM (inactive)	3.26 µM (inactive)	> 10 µM (inactive)
c1ccc(-n2nc3ccc4nonc4c3n2)cc1	> 100 µM (inactive)	> 100 µM (inactive)	> 100 µM (inactive)	> 100 µM (inactive)	> 100 µM (inactive)	> 100	> 100 µM (inactive)	> 100 µM (inactive)	–	> 100 µM (inactive)	> 100 µM (inactive)	> 100 µM (inactive)	> 100 µM (inactive)	> 100 µM (inactive)	> 100 µM (inactive)	> 100 µM (inactive)	> 100 µM (inactive)	> 100 µM (inactive)	> 100 µM (inactive)	–
COc1ccc(/N=N/c2ccc3oc(=O)c(C(=O)Nc4ccccc4C)cc3c2)cc1	> 10 µM (inactive)	> 10 µM (inactive)	> 10 µM (inactive)	> 10 µM (inactive)	> 10 µM (inactive)	> 10	> 10 µM (inactive)	> 10 µM (inactive)	–	> 10 µM (inactive)	> 10 µM (inactive)	> 10 µM (inactive)	> 10 µM (inactive)	> 10 µM (inactive)	> 10 µM (inactive)	> 10 µM (inactive)	> 10 µM (inactive)	> 10 µM (inactive)	> 10 µM (inactive)	> 10 µM (inactive)
